Assay results reported in patent US7989165B2, “Tape stripping methods for analysis of skin disease and pathological skin state” (DermTech International, priority 2004, dated 2011).
Values joined by “and” are separate entries in the source; they are usually repeats but may differ in a detail not shown here. Equal values may be shown once. Marks after values point to notes of the source that are not given here.

Columns and labels:
[1] = test system: gene expression levels in skin; assay: DNA microarray (Affymetrix HG-U133A GeneChip) of tape-harvested RNA, untreated vs water vs SLS-occluded skin; type: in vivo, human; details: threshold p=0.003, PPDE(p) 0.99
Excerpt: Clinical protocols: The study protocols were reviewed and approved by an independent IRB (BioMed IRB, San Diego) and all subjects signed informed consent. Ten healthy women, ages 21-55 were enrolled in the study. Regions of unblemished, normal appearing skin on the mid back were chosen for the application of 2 occlusive patches in the form of bandages approximately 4 cm×6.5 cm. The bandages were made using a clear, non-porous plastic hypoallergenic adhesive tape. In the center of this tape was a Webril (non-woven cotton) patch measuring approximately 2 cm×4.5 cm. One Webril patch contained 0.6 ml of 1% aqueous sodium lauryl sulfate and the other contained 0.6 ml of sterile water as the vehicle control. […] At 24 hours post application, the SLS and water patches were removed and the skin allowed to air dry for 15 minutes before scoring. The sites were scored by a trained technician using the scale provided below. Patched sites were large enough that two areas could be tape harvested without overlap and room left for a shave biopsy (˜2×2 mm). Skin sites were tape stripped with 4 tapes each and then a shave biopsy taken under local anesthetic (lidocaine HCl 1% and epinephrine 1:100,000; Abbott Laboratories). […] In a second study, 3 subjects had 3 patches containing 1% SLS and 3 water patches applied to the mid back for 24 hours: Patches were removed, scored and tape stripped as above. […]

IL-1β mRNA = assay: Semi-quantitative RT-PCR of IL-1β mRNA relative to β-actin in SLS-occluded skin (tape and biopsy); type: in vivo, human
Excerpt: Clinical protocols: The study protocols were reviewed and approved by an independent IRB (BioMed IRB, San Diego) and all subjects signed informed consent. […] The bandages were made using a clear, non-porous plastic hypoallergenic adhesive tape. […] The sites were scored by a trained technician using the scale provided below. […] Abbott Laboratories). […] An area of uninvolved skin was tape harvested and shave biopsied in an identical manner. […] The following grading scale was used: 0, no visible reaction; 1, slight, pink, patchy erythema; 2, mild confluent, pink erythema; 3, moderate erythema (definite redness) with edema; 4, strong erythema (very intense redness) with edema. […] Patches were removed, scored and tape stripped as above. In a third study, two individuals were tape stripped on uninvolved skin on the upper back at three adjacent sites as above. RNA harvested in these last two studies was used in the DNA microarray experiments described below. Isolation of RNA: […] Extraction was performed using the manufacturer's directions and included a Proteinase K digestion, sonication of tapes and “on-column” DNase I digestion. […] Extraction of biopsies was performed with the same kit according to the manufacturer's instructions. Quantitative RT-PCR: 10 μl of RNA was reverse transcribed (RT) into cDNA with the Sensiscript Reverse Transcriptase kit and random hexamers in a final volume of […] according to the manufacturer's directions. […] All RT-reactions were amplified using 2 replicates and were negative (data not shown). Amplification and detection of specific mRNA: Specific mRNAs were converted to cDNA as described above. […] Amplification and detection assays were performed using TaqMan Pre-Developed Assay Reagents (PDAR; […] GAPDH mRNA assays were done in singleplex format. Thermal cycling conditions were: prior to cycling, two minutes at 50° C., then ten minutes at 95° C.; then 40 cycles at 95° C. for 15 seconds and 60° C. for 60 seconds. […] Semi-quantitation of mRNA using the ΔΔCt method: In this Example the comparative or ΔΔCt method of calculating relative gene expression levels between two samples, was used. In the ΔΔCt method the levels of IL-1β, IL-8 and GAPDH mRNAs are assayed semi-quantitatively by normalization to β-actin mRNA to create a ratio of (mRNAx)/(β-actin) mRNA for each RNA sample. This ratio is then further normalized to a control sample (a process called “calibration”; (Applied Biosystems 2001)). When comparing the ratio of mRNAx to β-actin mRNA between two different samples, it is implicitly assumed that the level of β-actin mRNA to total RNA is constant between the two samples (i.e. it is an unchanging housekeeping gene). […] The Ct values are the experimentally determined number of PCR cycles required to achieve a threshold fluorescence (statistically significant increase in fluorescence over background) for mRNAx and β-actin mRNA (Gibson, Heid et al. 1996; Heid, Stevens et al. 1996). Calculation of fold-increase and data analysis: Key to the method used to measure mRNA is the fact that the quantity of specific mRNA directly correlates with the number of cycles needed to reach threshold fluorescence, thus the fewer the number of cycles (the lower the Ct), the more mRNA is initially present. As described above, experimental data is reported as the number of cycles (Ct) required to reach a threshold fluorescence. […] The significance of ΔCt values (Tables I and IV) was determined by applying a two-sided, paired t-test. […]

[2] = SLS-occluded skin vs uninvolved skin

CCCCCCCCCCCCOS(=O)(=O)[O-].[Na+] [SLS, sodium lauryl sulfate]
number of genes differentially expressed, SLS vs water treated [1]: 1,364 genes
fold-change in IL-1β/β-actin mRNA ratio, Biopsy (IL-1β mRNA; SLS-occluded skin relative to uninvolved skin, biopsy samples, per subject, > = minimum estimate, sulfate): >15**^† fold and >3.3** fold and >8**^† fold and >34**^† fold and >11**^† fold and 56**^† fold and >53**^† fold and 2.2** fold and 1 fold and >28**^† fold
fold-change in IL-1β/β-actin mRNA ratio, Tape (IL-1β mRNA; SLS-occluded skin relative to uninvolved skin, tape samples, per subject, > = minimum estimate, sulfate): 18**^† fold and >0.44 fold and >8.1**^† fold and >1.9** fold and >5** fold and >1.4 fold and >7.3**^† fold
biopsy samples with significantly elevated IL-1β/β-actin mRNA ratio (IL-1β mRNA; [2]): 9 of 10
tape-harvested samples with significant increases in IL-1β/β-actin mRNA (IL-1β mRNA; [2]): 5 of 10
SLS-treated biopsy samples with significant increases in IL-1β/actin mRNA ratio calibrated to the water-treated site (IL-1β mRNA; of 10 biopsy samples): 7 samples
